Laboratory results from patent US9650395B2, “Antibacterial compounds and methods for use” (PTC Therapeutics, Inc., priority 2011, dated 2017).
Values after ≈ are worked out from the molar mass of the structure shown. Where two headings read alike, the source gives them in different places.

Columns and labels:
[1] = test system: Gram-positive Staphylococcus aureus (S. aureus) 29213; assay: Antibacterial activity, microbroth dilution MIC, S. aureus 29213; type: cell-based; conditions: Staphylococcus aureus; S. aureus 29213, microbroth dilution; read-out: MIC, 29213
[2] = test system: Haemophilus influenzae (H. influenzae) 49247; assay: Antibacterial activity, MIC, H. influenzae 49247; type: cell-based; conditions: Haemophilus influenzae; H. influenzae 49247; read-out: MIC 49247
Source text: (§1) The antibacterial activity from a microbroth dilution method may be presented as the minimum inhibitory concentration (MIC in […]). The MIC value is the lowest concentration of a drug which prevents macroscopically visible bacterial growth under test conditions.
Antibacterial activity of test compounds against the Gram-negative bacteria Haemophilus influenzae (H. influenzae) 49247, Moraxella catarrhalis (M. catarrhalis) 25238 and Neisseria meningitidis (N. meningitidis) 13090 is shown in Table 6.

[3] = test system: Moraxella catarrhalis (M. catarrhalis) 25238; assay: Antibacterial activity, MIC, M. catarrhalis 25238; type: cell-based; conditions: Moraxella catarrhalis, M. catarrhalis 25238; read-out: MIC 25238
[4] = test system: Neisseria meningitidis (N. meningitidis) 13090; assay: Antibacterial activity, MIC, N. meningitidis 13090; type: cell-based; conditions: Neisseria meningitidis; N. meningitidis 13090; read-out: MIC 13090
[5] = test system: super sensitive Gram-negative Escherichia coli (E. coli) BAS849; assay: Antibacterial activity, microbroth dilution MIC, E. coli BAS849; type: cell-based; conditions: Escherichia coli, read-out: MIC, BAS849
[6] = test system: control Gram-negative E. coli 25922 strain; assay: Antibacterial activity, microbroth dilution MIC, E. coli 25922; type: cell-based, Escherichia coli; conditions: Escherichia coli; E. coli 25922, microbroth dilution; read-out: MIC, 25922
[7] = test system: E. coli ELZ4000 (MDR clinical isolate); assay: Antibacterial activity, MIC, MDR E. coli ELZ4000; type: cell-based, Escherichia coli; conditions: Escherichia coli; E. coli ELZ4000, MDR clinical isolate; read-out: MIC ELZ4000
[8] = test system: E. coli ELZ4251 (MDR clinical isolate); assay: Antibacterial activity, MIC, MDR E. coli ELZ4251; type: cell-based, Escherichia coli; conditions: Escherichia coli, E. coli ELZ4251, MDR clinical isolate; read-out: MIC ELZ4251
[9] = test system: quinolone resistant E. coli LZ3111; assay: Antibacterial activity, MIC, quinolone resistant E. coli LZ3111; type: cell-based, Escherichia coli; conditions: Escherichia coli, read-out: MIC, LZ3111
Source text: as §1
Mutations in these regions are known to confer a high level resistance to the quinolone class of antibiotics.

[10] = test system: Pseudomonas aeruginosa (P. aeruginosa) 27853; assay: Antibacterial activity, MIC, P. aeruginosa 27853; type: cell-based; conditions: Pseudomonas aeruginosa, P. aeruginosa 27853; read-out: MIC 27853
Source text: as §1
Antibacterial activity of test compounds against the Gram-negative bacterium Pseudomonas aeruginosa (P. aeruginosa) 27853 is shown in Table 5.

[11] = E. coli BAS849, microbroth dilution

Compound | MIC [1] | MIC [2] | MIC [3] | MIC [4] | MIC [5, 11] | MIC [6] | MIC [7] | MIC [8] | MIC [9] | MIC [5] | MIC [10]
CN(C)c1ccc(-c2[nH]c(=O)c(C(=O)O)cc2Cc2ccccc2)cc1 [Cpd 1, 5-benzyl-6-[4-(dimethylamino)phenyl]-2-oxo-1,2-dihydropyridine-3-carboxylic acid] | 12.5 to 150 µg/mL (≈ 35.9 to 431 µM) | < 1 µg/mL | 3.5 to 12.5 µg/mL (≈ 10 to 35.9 µM) | 3.5 to 12.5 µg/mL (≈ 10 to 35.9 µM) | 12.5 to 150 µg/mL (≈ 35.9 to 431 µM) | – | – | – | – | – | –
CN(C)c1ccc(-c2[nH]c(=O)c(C(=O)O)c(O)c2Cc2ccccc2)cc1 [Cpd 2, 5-benzyl-6-[4-(dimethylamino)phenyl]-4-hydroxy-2-oxo-1,2-dihydropyridine-3-carboxylic acid] | 3.5 to 12.5 µg/mL (≈ 9.6 to 34.3 µM) | < 1 µg/mL | < 1 µg/mL | < 1 µg/mL | 12.5 to 150 µg/mL (≈ 34.3 to 412 µM) | 12.5 to 150 µg/mL (≈ 34.3 to 412 µM) | – | – | – | – | –
CCc1cc(C(=O)O)c(=O)[nH]c1-c1ccc(N)cc1 [Cpd 3, 6-(4-aminophenyl)-5-ethyl-2-oxo-1,2-dihydropyridine-3-carboxylic acid] | 12.5 to 150 µg/mL (≈ 48.4 to 581 µM) | – | < 1 µg/mL | < 1 µg/mL | < 1 µg/mL | 3.5 to 12.5 µg/mL (≈ 13.6 to 48.4 µM) | 12.5 to 150 µg/mL (≈ 48.4 to 581 µM) | 12.5 to 150 µg/mL (≈ 48.4 to 581 µM) | 12.5 to 150 µg/mL (≈ 48.4 to 581 µM) | – | –
CCc1cc(C(=O)O)c(=O)[nH]c1-c1ccc(N(C)CCOC2CCCCO2)cc1 (stereo not shown) [Cpd 16, 5-ethyl-6-(4-{methyl[2-(tetrahydro-2H-pyran-2-yloxy)ethyl]amino}phenyl)-2-oxo-1,2-dihydropyridine-3-carboxylic acid] | 12.5 to 150 µg/mL (≈ 31.2 to 375 µM) | < 1 µg/mL | < 1 µg/mL | – | < 1 µg/mL | 3.5 to 12.5 µg/mL (≈ 8.74 to 31.2 µM) | 12.5 to 150 µg/mL (≈ 31.2 to 375 µM) | 12.5 to 150 µg/mL (≈ 31.2 to 375 µM) | 12.5 to 150 µg/mL (≈ 31.2 to 375 µM) | – | –
CCc1c(-c2ccc(N(C)CCO)cc2)[nH]c(=O)c(C(=O)O)c1O [Cpd 18, 5-ethyl-4-hydroxy-6-{4-[(2-hydroxyethyl)(methyl)amino]phenyl}-2-oxo-1,2-dihydropyridine-3-carboxylic acid] | 3.5 to 12.5 µg/mL (≈ 10.5 to 37.6 µM) | < 1 µg/mL | < 1 µg/mL | – | < 1 µg/mL | 3.5 to 12.5 µg/mL (≈ 10.5 to 37.6 µM) | 12.5 to 150 µg/mL (≈ 37.6 to 451 µM) | 12.5 to 150 µg/mL (≈ 37.6 to 451 µM) | 12.5 to 150 µg/mL (≈ 37.6 to 451 µM) | – | –
CCc1cc(C(=O)O)c(=O)[nH]c1-c1ccc(N2CCCC2)cc1F [Cpd 38, 5-ethyl-6-[2-fluoro-4-(pyrrolidin-1-yl)phenyl]-2-oxo-1,2-dihydropyridine-3-carboxylic acid] | 3.5 to 12.5 µg/mL (≈ 10.6 to 37.8 µM) | – | < 1 µg/mL | – | < 1 µg/mL | 1 to 3.5 µg/mL (≈ 3.03 to 10.6 µM) | 12.5 to 150 µg/mL (≈ 37.8 to 454 µM) | 12.5 to 150 µg/mL (≈ 37.8 to 454 µM) | 12.5 to 150 µg/mL (≈ 37.8 to 454 µM) | – | –
CCc1cc(C(=O)O)c(=O)[nH]c1-c1ccc(N(C)C)cc1F [Cpd 53, 6-[4-(dimethylamino)-2-fluorophenyl]-5-ethyl-2-oxo-1,2-dihydropyridine-3-carboxylic acid] | 12.5 to 150 µg/mL (≈ 41.1 to 493 µM) | – | < 1 µg/mL | – | < 1 µg/mL | 1 to 3.5 µg/mL (≈ 3.29 to 11.5 µM) | – | – | – | – | –
CCc1cc(C(=O)O)c(=O)[nH]c1-c1ccc(N(C)CC)cc1 [Cpd 160, 5-ethyl-6-{4-[ethyl(methyl)amino]phenyl}-2-oxo-1,2-dihydropyridine-3-carboxylic acid] | 12.5 to 150 µg/mL (≈ 41.6 to 499 µM) | < 1 µg/mL | < 1 µg/mL | – | < 1 µg/mL | 1 to 3.5 µg/mL (≈ 3.33 to 11.7 µM) | 12.5 to 150 µg/mL (≈ 41.6 to 499 µM) | 12.5 to 150 µg/mL (≈ 41.6 to 499 µM) | 12.5 to 150 µg/mL (≈ 41.6 to 499 µM) | – | –
CCc1cc(C(=O)O)c(=O)[nH]c1-c1ccc(N2CCC(CNCc3ccccc3)C2)cc1.Cl (stereo not shown) [Cpd 182, 6-(4-{3-[(benzylamino)methyl]pyrrolidin-1-yl}phenyl)-5-ethyl-2-oxo-1,2-dihydropyridine-3-carboxylic acid hydrochloride] | 12.5 to 150 µg/mL | – | < 1 µg/mL | < 1 µg/mL | < 1 µg/mL | < 1 µg/mL | 12.5 to 150 µg/mL | 12.5 to 150 µg/mL | 12.5 to 150 µg/mL | – | –
CCc1cc(C(=O)O)c(=O)[nH]c1-c1ccc(N2CCC(CN(C)C)C2)cc1.O=C(O)C(F)(F)F (stereo not shown) [Cpd 185, 6-(4-{3-[(dimethylamino)methyl]pyrrolidin-1-yl}phenyl)-5-ethyl-2-oxo-1,2-dihydropyridine-3-carboxylic acid trifluoroacetate] | 12.5 to 150 µg/mL | – | 1 to 3.5 µg/mL | < 1 µg/mL | – | 3.5 to 12.5 µg/mL | 12.5 to 150 µg/mL | 12.5 to 150 µg/mL | 12.5 to 150 µg/mL | < 1 µg/mL | –
CCc1cc(C(=O)O)c(=O)[nH]c1-c1ccc(N2C[C@H]3CCN(C)[C@H]3C2)cc1.O=C(O)C(F)(F)F [Cpd 187, 5-ethyl-6-{4-[(3aR,6aR)-1-methylhexahydropyrrolo[3,4-b]pyrrol-5(1H)-yl]phenyl}-2-oxo-1,2-dihydropyridine-3-carboxylic acid trifluoroacetate] | 12.5 to 150 µg/mL | – | 1 to 3.5 µg/mL | < 1 µg/mL | – | 3.5 to 12.5 µg/mL | 12.5 to 150 µg/mL | 12.5 to 150 µg/mL | 12.5 to 150 µg/mL | < 1 µg/mL | –
CCc1cc(C(=O)O)c(=O)[nH]c1-c1ccc(N2C[C@H](CN)[C@@H](C)C2)cc1 [Cpd 216, 6-{4-[(3S,4R)-3-(aminomethyl)-4-methylpyrrolidin-1-yl]phenyl}-5-ethyl-2-oxo-1,2-dihydropyridine-3-carboxylic acid] | 12.5 to 150 µg/mL (≈ 35.2 to 422 µM) | – | – | – | 12.5 to 150 µg/mL (≈ 35.2 to 422 µM) | 12.5 to 150 µg/mL (≈ 35.2 to 422 µM) | 12.5 to 150 µg/mL (≈ 35.2 to 422 µM) | 12.5 to 150 µg/mL (≈ 35.2 to 422 µM) | 12.5 to 150 µg/mL (≈ 35.2 to 422 µM) | – | 12.5 to 150 µg/mL (≈ 35.2 to 422 µM)
CCc1cc(C(=O)O)c(=O)[nH]c1-c1ccc(N2C[C@H]3CCC[C@H](N=[N+]=[N-])[C@H]3C2)cc1.O=C(O)C(F)(F)F [Cpd 244, 6-{4-[(3aR,4S,7aS)-4-azidooctahydro-2H-isoindol-2-yl]phenyl}-5-ethyl-2-oxo-1,2-dihydropyridine-3-carboxylic acid trifluoroacetate] | 1 to 3.5 µg/mL | – | – | – | – | 12.5 to 150 µg/mL | 12.5 to 150 µg/mL | 12.5 to 150 µg/mL | 12.5 to 150 µg/mL | < 1 µg/mL | 12.5 to 150 µg/mL
CCc1c(-c2ccc(N3CC(N)C4(CC4)C3)cc2)[nH]c(=O)c(C(=O)O)c1O.O=C(O)C(F)(F)F (stereo not shown) [Cpd 252, 6-[4-(7-amino-5-azaspiro[2.4]hept-5-yl)phenyl]-5-ethyl-4-hydroxy-2-oxo-1,2-dihydropyridine-3-carboxylic acid trifluoroacetate] | 12.5 to 150 µg/mL | – | – | – | – | 1 to 3.5 µg/mL | 12.5 to 150 µg/mL | 12.5 to 150 µg/mL | 3.5 to 12.5 µg/mL | < 1 µg/mL | 12.5 to 150 µg/mL
CCc1c(-c2ccc(N3C[C@H]4CN(C)C[C@H]4C3)cc2)[nH]c(=O)c(C(=O)O)c1O.Cl [Cpd 273, 5-ethyl-4-hydroxy-6-{4-[(3aR,6aS)-5-methylhexahydropyrrolo[3,4-c]pyrrol-2(1H)-yl]phenyl}-2-oxo-1,2-dihydropyridine-3-carboxylic acid hydrochloride] | 12.5 to 150 µg/mL | – | 1 to 3.5 µg/mL | 1 to 3.5 µg/mL | < 1 µg/mL | 1 to 3.5 µg/mL | 12.5 to 150 µg/mL | 12.5 to 150 µg/mL | 12.5 to 150 µg/mL | – | –
CCc1c(-c2ccc(N3CCC(C)(CN)C3)cc2)[nH]c(=O)c(C(=O)O)c1O (stereo not shown) [Cpd 290, 6-{4-[3-(aminomethyl)-3-methylpyrrolidin-1-yl]phenyl}-5-ethyl-4-hydroxy-2-oxo-1,2-dihydropyridine-3-carboxylic acid] | 12.5 to 150 µg/mL (≈ 33.7 to 404 µM) | – | – | – | < 1 µg/mL | 1 to 3.5 µg/mL (≈ 2.69 to 9.42 µM) | 12.5 to 150 µg/mL (≈ 33.7 to 404 µM) | 3.5 to 12.5 µg/mL (≈ 9.42 to 33.7 µM) | 3.5 to 12.5 µg/mL (≈ 9.42 to 33.7 µM) | – | 12.5 to 150 µg/mL (≈ 33.7 to 404 µM)
CCc1cc(C(=O)O)c(=O)[nH]c1-c1ccc(N2CC=CC2)cc1 [Cpd 301, 6-[4-(2,5-dihydro-1H-pyrrol-1-yl)phenyl]-5-ethyl-2-oxo-1,2-dihydropyridine-3-carboxylic acid] | < 1 µg/mL | – | – | – | < 1 µg/mL | < 1 µg/mL | 12.5 to 150 µg/mL (≈ 40.3 to 483 µM) | 12.5 to 150 µg/mL (≈ 40.3 to 483 µM) | 12.5 to 150 µg/mL (≈ 40.3 to 483 µM) | – | 3.5 to 12.5 µg/mL (≈ 11.3 to 40.3 µM)
